The target of the assay is somatostatin type 2 (SSTR2) receptors (Homo sapiens, UniProt P30874). As to the kind of experiment: PathHunter β-Arrestin assay, antagonist mode, SSTR2. The format is cell-based. The settings on record: agonist challenge at EC80. The procedure: The PathHunter® β-Arrestin assay monitors the activation of a GPCR in a homogenous, non-imaging assay format using a technology developed by DiscoveRx called Enzyme Fragment Complementation (EFC) with β-galactosidase (β-Gal) as the functional reporter. […] EA is fused to β-Arrestin and […] is fused to the GPCR of interest. When the GPCR is activated and β-Arrestin is recruited to the receptor, ED and EA complementation occurs, restoring β-Gal activity which is measured using chemiluminescent PathHunter® Detection Reagents. For antagonist determination, cells were pre-incubated with the compounds followed by agonist challenge at the EC80 concentration. Data was normalized to the maximal and minimal response observed in the presence of EC80 ligand and vehicle. Compound activity was analyzed using CBIS data analysis suite ChemInnovation, CA). Percentage inhibition was calculated using the following formula: % Inhibition=100%×(1−(mean signal of test sample-mean signal of vehicle control)/(mean signal of EC80 control-mean signal of vehicle control)). Percentage inhibition was calculated at 10 concentrations in steps on a Log 3 scale ranging from […] to 5e-5 μM. The results were plotted for IC50 calculation.

*1 amine or outer side, *2 acyl side, *3 side chain or, on linkers, in order; H or OH if unused. Where a SMILES comes first, the peptide text is derived from it. Bridges are numbered along the chain shown (N, C = ends). Triazole bridges read from a SMILES are 1,4-linked. [ ]: non-standard residue; d: D form. The star is where a group is joined. ξ: configuration not given here. dPhe(4-CONH2) = NC(=O)c1ccc(C[C@@H](N)C(=O)O)cc1; dPhe(4-CN) = N#Cc1ccc(C[C@@H](N)C(=O)O)cc1; Phe(4-Cl) = N[C@@H](Cc1ccc(Cl)cc1)C(=O)O; dDap(N3) = [N-]=[N+]=NC[C@@H](N)C(=O)O; Dap(N3) = [N-]=[N+]=NC[C@H](N)C(=O)O; Butanoyl(3,3-Me2) = CC(C)(C)CC(=O)*; Lys(Me) = CNCCCC[C@H](N)C(=O)O; Thr(3ξ) = CC(O)[C@H](N)C(=O)O; X4 = O=C(CS(=O)(=O)c1ccccc1)*; Succinamoyl = NC(=O)CCC(=O)*; Picolinoyl = O=C(c1ccccn1)*; ξY = NC(Cc1ccc(O)cc1)C(=O)O; MeOSuc = COC(=O)CCC(=O)*; Pra = C#CC[C@H](N)C(=O)O; 2Furoyl = O=C(c1ccco1)*; Dap = NC[C@H](N)C(=O)O; Hexanoyl = CCCCCC(=O)*; CO = O=C([*:1])[*:2]; Bz = O=C(c1ccccc1)*; βAla = NCCC(=O)O Where only a bound is given, the exact number is not on record here.

By IC50 is commonly meant the concentration that gives 50% inhibition. A high value points to lower potency.

Chain of somatostatin type 2 (SSTR2) receptors (P30874 whole entry, the tested form may be a part): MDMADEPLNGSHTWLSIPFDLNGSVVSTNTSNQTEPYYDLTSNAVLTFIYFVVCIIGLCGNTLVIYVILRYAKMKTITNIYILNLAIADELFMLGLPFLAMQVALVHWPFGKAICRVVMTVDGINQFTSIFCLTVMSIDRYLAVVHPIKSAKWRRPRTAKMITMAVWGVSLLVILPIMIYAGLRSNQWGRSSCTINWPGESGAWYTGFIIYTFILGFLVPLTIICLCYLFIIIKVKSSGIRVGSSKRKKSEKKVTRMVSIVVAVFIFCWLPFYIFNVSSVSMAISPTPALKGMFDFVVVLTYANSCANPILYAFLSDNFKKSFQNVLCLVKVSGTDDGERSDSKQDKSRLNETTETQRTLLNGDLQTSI

As to `CNCCCC[C@@H]1NC(=O)[C@@H](Cc2ccc(C(N)=O)cc2)NC(=O)[C@H](Cc2ccc(Cl)cc2)NC(=O)[C@H](NC(=O)[C@@H](N)Cc2ccc(Cl)cc2)CSSC[C@@H](C(=O)NC(Cc2ccc(O)cc2)C(N)=O)NC(=O)[C@H]([C@@H](C)O)NC1=O` (stereo partly drawn) [Compound 48, H-Cpa-cyclo[D-Cys-Cpa-D-Phe(4-carbamoyl)-Lys(N^ε-Me)-Thr-Cys]-D-Tyr-NH2] (H-[Phe(4-Cl)][dC][Phe(4-Cl)][dPhe(4-CONH2)][Lys(Me)]TC[ξY]-NH2; disulfide 2-7), the concentration for half-maximal inhibition (IC50) was 1.31 nM.

Turning to `CNCCCC[C@@H]1NC(=O)[C@@H](Cc2ccc(C(N)=O)cc2)NC(=O)[C@H](Cc2ccc(O)cc2)NC(=O)[C@H](NC(=O)[C@H](Cc2ccc(Cl)cc2)NC(=O)CCN)CSSC[C@@H](C(=O)N[C@H](Cc2ccc(O)cc2)C(N)=O)NC(=O)[C@H]([C@@H](C)O)NC1=O` [Compound 49, H-β-Ala-Cpa-cyclo[D-Cys-Tyr-D-Phe(4-carbamoyl)-Lys (Nε-Me)-Thr-Cys]-D-Tyr-NH2] (H-[βAla][Phe(4-Cl)][dC]Y[dPhe(4-CONH2)][Lys(Me)]TC[dY]-NH2; disulfide 3-8), the IC50 was 2.86 nM.

With `CNCCCC[C@@H]1NC(=O)[C@@H](Cc2ccc(C(N)=O)cc2)NC(=O)[C@H](Cc2ccc(O)cc2)NC(=O)[C@H](NC(=O)[C@H](Cc2ccc(Cl)cc2)NC(=O)CNC(=O)c2ccccc2)CSSC[C@@H](C(=O)N[C@H](Cc2ccc(O)cc2)C(N)=O)NC(=O)[C@H]([C@@H](C)O)NC1=O` [Compound 50, Ph(CO)NHCH2(CO)-Cpa-cyclo[D-Cys-Tyr-D-Phe(4-carbamoyl)-Lys(N^ε-Me)-Thr-Cys]-D-Tyr-NH2] (Bz-G[Phe(4-Cl)][dC]Y[dPhe(4-CONH2)][Lys(Me)]TC[dY]-NH2; disulfide 3-8), the IC50 turned out to be 1.11 nM.

Compound `CNCCCC[C@@H]1NC(=O)[C@@H](Cc2ccc(C(N)=O)cc2)NC(=O)[C@H](Cc2ccc(O)cc2)NC(=O)[C@H](NC(=O)[C@H](Cc2ccc(Cl)cc2)NC(=O)CS(=O)(=O)c2ccccc2)CSSC[C@@H](C(=O)N[C@H](Cc2ccc(O)cc2)C(N)=O)NC(=O)[C@H]([C@@H](C)O)NC1=O` [Compound 51, PhSO2CH2(CO)-Cpa-cyclo[D-Cys-Tyr-D-Phe(4-carbamoyl)-Lys(N^ε-Me)-Thr-Cys]-D-Tyr-NH2] (X4-[Phe(4-Cl)][dC]Y[dPhe(4-CONH2)][Lys(Me)]TC[dY]-NH2; disulfide 2-7) yielded an IC50 of 1.45 nM.

The compound `CNCCCC[C@@H]1NC(=O)[C@@H](Cc2ccc(C(N)=O)cc2)NC(=O)[C@H](Cc2ccc(O)cc2)NC(=O)[C@H](NC(=O)[C@H](Cc2ccc(Cl)cc2)NC(=O)CC(C)(C)C)CSSC[C@@H](C(=O)N[C@H](Cc2ccc(O)cc2)C(N)=O)NC(=O)[C@H]([C@@H](C)O)NC1=O` [Compound 52, t-BuCH2(CO)-Cpa-cyclo[D-Cys-Tyr-D-Phe(4-carbamoyl)-Lys(N^ε-Me)-Thr-Cys]-D-Tyr-NH2] ({Butanoyl(3,3-Me2)}-[Phe(4-Cl)][dC]Y[dPhe(4-CONH2)][Lys(Me)]TC[dY]-NH2; disulfide 2-7) yielded an IC50 of 1.73 nM.

For the compound `CNCCCC[C@@H]1NC(=O)[C@@H](Cc2ccc(C(N)=O)cc2)NC(=O)[C@H](Cc2ccc(O)cc2)NC(=O)[C@H](NC(=O)[C@H](Cc2ccc(Cl)cc2)NC(=O)c2ccccn2)CSSC[C@@H](C(=O)N[C@H](Cc2ccc(O)cc2)C(N)=O)NC(=O)[C@H]([C@@H](C)O)NC1=O` [Compound 53, 2-Pyridyl(CO)-Cpa-cyclo[D-Cys-Tyr-D-Phe(4-carbamoyl)-Lys(N^ε-Me)-Thr-Cys]-D-Tyr-NH2] (Picolinoyl-[Phe(4-Cl)][dC]Y[dPhe(4-CONH2)][Lys(Me)]TC[dY]-NH2; disulfide 2-7), the IC50 came out at 4.28 nM.

The compound `CNCCCC[C@@H]1NC(=O)[C@@H](Cc2ccc(C(N)=O)cc2)NC(=O)[C@H](Cc2ccc(O)cc2)NC(=O)[C@H](NC(=O)[C@H](Cc2ccc(Cl)cc2)NC(=O)CCC(N)=O)CSSC[C@@H](C(=O)N[C@H](Cc2ccc(O)cc2)C(N)=O)NC(=O)[C@H]([C@@H](C)O)NC1=O` [Compound 54, H2N(CO)(CH2)2(CO)-Cpa-cyclo[D-Cys-Tyr-D-Phe(4-carbamoyl)-Lys(N^ε-Me)-Thr-Cys]-D-Tyr-NH2] (Succinamoyl-[Phe(4-Cl)][dC]Y[dPhe(4-CONH2)][Lys(Me)]TC[dY]-NH2; disulfide 2-7) displayed an IC50 of 2.33 nM.

Compound `CNCCCC[C@@H]1NC(=O)[C@@H](Cc2ccc(C(N)=O)cc2)NC(=O)[C@H](Cc2ccc(O)cc2)NC(=O)[C@H](NC(=O)[C@H](Cc2ccc(Cl)cc2)NC(=O)CNC(C)=O)CSSC[C@@H](C(=O)N[C@H](Cc2ccc(O)cc2)C(N)=O)NC(=O)[C@H]([C@@H](C)O)NC1=O` [Compound 55, Ac-Gly-Cpa-cyclo[D-Cys-Tyr-D-Phe(4-carbamoyl)-Lys(N^ε-Me)-Thr-Cys]-D-Tyr-NH2] (Ac-G[Phe(4-Cl)][dC]Y[dPhe(4-CONH2)][Lys(Me)]TC[dY]-NH2; disulfide 3-8) gave an IC50 of 3.35 nM.

Regarding `CCCCCC(=O)N[C@@H](Cc1ccc(Cl)cc1)C(=O)N[C@@H]1CSSC[C@@H](C(=O)N[C@H](Cc2ccc(O)cc2)C(N)=O)NC(=O)[C@H]([C@@H](C)O)NC(=O)[C@H](CCCCNC)NC(=O)[C@@H](Cc2ccc(C(N)=O)cc2)NC(=O)[C@H](Cc2ccc(O)cc2)NC1=O` [Compound 56, CH3(CH2)4(CO)-Cpa-cyclo[D-Cys-Tyr-D-Phe(4-carbamoyl)-Lys(N^ε-Me)-Thr-Cys]-D-Tyr-NH2] (Hexanoyl-[Phe(4-Cl)][dC]Y[dPhe(4-CONH2)][Lys(Me)]TC[dY]-NH2; disulfide 2-7), the IC50 stood at 1.6 nM.

Consider `CNCCCC[C@@H]1NC(=O)[C@@H](Cc2ccc(C(N)=O)cc2)NC(=O)[C@H](Cc2ccc(O)cc2)NC(=O)[C@H](NC(=O)[C@H](Cc2ccc(Cl)cc2)NC(=O)c2ccco2)CSSC[C@@H](C(=O)N[C@H](Cc2ccc(O)cc2)C(N)=O)NC(=O)[C@H]([C@@H](C)O)NC1=O` [Compound 57, (Furan-2-carboxy)-Cpa-cyclo[D-Cys-Tyr-D-Phe(4-carbamoyl)-Lys(N^ε-Me)-Thr-Cys]-D-Tyr-NH2] (2Furoyl-[Phe(4-Cl)][dC]Y[dPhe(4-CONH2)][Lys(Me)]TC[dY]-NH2; disulfide 2-7), for which the IC50 worked out at 3.65 nM.

`CNCCCC[C@@H]1NC(=O)[C@@H](Cc2ccc(C(N)=O)cc2)NC(=O)[C@H](Cc2ccc(O)cc2)NC(=O)[C@H](NC(=O)[C@H](Cc2ccc(Cl)cc2)NC(=O)CCC(=O)OC)CSSC[C@@H](C(=O)N[C@H](Cc2ccc(O)cc2)C(N)=O)NC(=O)[C@H]([C@@H](C)O)NC1=O` [Compound 58, CH3O2C(CH2)2(CO)-Cpa-cyclo[D-Cys-Tyr-D-Phe(4-carbamoyl)-Lys(N^ε-Me)-Thr-Cys]-D-Tyr-NH2] (MeOSuc-[Phe(4-Cl)][dC]Y[dPhe(4-CONH2)][Lys(Me)]TC[dY]-NH2; disulfide 2-7) displayed an IC50 of 2.36 nM.

Compound `C[C@@H](O)[C@@H]1NC(=O)[C@H](CCCCN)NC(=O)[C@@H](Cc2ccc(C#N)cc2)NC(=O)[C@H](Cc2ccc(O)cc2)NC(=O)[C@H](NC(=O)[C@@H](N)Cc2ccc(Cl)cc2)CSSC[C@@H](C(=O)N[C@H](Cc2ccc(O)cc2)C(N)=O)NC1=O` [Compound 59, H-Cpa-[DCys- Tyr-DPhe(4-CN)- Lys-Thr-Cys]- DTyr-NH2] (H-[Phe(4-Cl)][dC]Y[dPhe(4-CN)]KTC[dY]-NH2; disulfide 2-7) showed an IC50 of 39.1 nM.

`CC(O)[C@@H]1NC(=O)[C@H](CCCCN)NC(=O)[C@@H](Cc2ccc(C(N)=O)cc2)NC(=O)[C@H](Cc2ccc(O)cc2)NC(=O)[C@H](NC(=O)[C@@H](N)Cc2ccc(Cl)cc2)CNC(=O)SC[C@@H](C(=O)N[C@H](Cc2ccc(O)cc2)C(N)=O)NC1=O` (stereo partly drawn) [Compound 60, H-Cpa-cyclo [DDap-Tyr- DPhe(4-CONH2)- Lys-Thr-Cys]- DTyr-NH2] gave an IC50 above 1000 nM.

Take `CC(O)[C@@H]1NC(=O)[C@H](CCCCN)NC(=O)[C@@H](Cc2ccc(C(N)=O)cc2)NC(=O)[C@H](Cc2ccc(O)cc2)NC(=O)[C@H](NC(=O)[C@@H](N)Cc2ccc(Cl)cc2)CSC(=O)NC[C@@H](C(=O)N[C@H](Cc2ccc(O)cc2)C(N)=O)NC1=O` (stereo partly drawn) [Compound 62, H-Cpa-cyclo[DCys- Tyr-DPhe(4- CONH2)- Lys-Thr-Dap]- DTyr-NH2] (H-[Phe(4-Cl)][dC]Y[dPhe(4-CONH2)]K[Thr(3ξ)][Dap][dY]-NH2; linker 2-7 via CO): the IC50 was above 1000 nM.

As for `CNCCCC[C@@H]1NC(=O)[C@@H](Cc2ccc(C(N)=O)cc2)NC(=O)[C@H](Cc2ccc(O)cc2)NC(=O)[C@H](NC(=O)[C@@H](N)Cc2ccc(Cl)cc2)CSC(=O)NC[C@@H](C(=O)N[C@H](Cc2ccc(O)cc2)C(N)=O)NC(=O)[C@H](C(C)O)NC1=O` (stereo partly drawn) [Compound 63, H-Cpa-cyclo [DCys-Tyr-DPhe (4-CONH2)- Lys(Me)-Thr-Dap]- DTyr-NH2] (H-[Phe(4-Cl)][dC]Y[dPhe(4-CONH2)][Lys(Me)][Thr(3ξ)][Dap][dY]-NH2; linker 2-7 via CO), the IC50 was above 1000 nM.

The compound `C[C@@H](O)[C@@H]1NC(=O)[C@H](CCCCN)NC(=O)[C@@H](Cc2ccc(C(N)=O)cc2)NC(=O)[C@H](Cc2ccc(O)cc2)NC(=O)[C@H](NC(=O)[C@@H](N)Cc2ccc(Cl)cc2)Cn2cc(nn2)C[C@@H](C(=O)N[C@H](Cc2ccc(O)cc2)C(N)=O)NC1=O` [Compound 64] (H-[Phe(4-Cl)][dDap(N3)]Y[dPhe(4-CONH2)]KT[Pra][dY]-NH2; triazole 2-7) showed an IC50 above 1000 nM.

As for `C[C@@H](O)[C@@H]1NC(=O)[C@H](CCCCN)NC(=O)[C@@H](Cc2ccc(C(N)=O)cc2)NC(=O)[C@H](Cc2ccc(O)cc2)NC(=O)[C@@H](NC(=O)[C@@H](N)Cc2ccc(Cl)cc2)Cc2cn(nn2)C[C@@H](C(=O)N[C@H](Cc2ccc(O)cc2)C(N)=O)NC1=O` [Compound 65] (H-[Phe(4-Cl)][Pra]Y[dPhe(4-CONH2)]KT[Dap(N3)][dY]-NH2; triazole 2-7), the IC50 came out at 688 nM.

Source of the values: patent US12486302B2, “Somatostatin receptor antagonist compounds and methods of using the same” (CDRD VENTURES INC., priority 2016, dated 2025).
